Data from patent US11351164B2, “Inhibitors of indoleamine 2,3-dioxygenase and methods of their use” (BRISTOL-MYERS SQUIBB COMPANY, priority 2016, dated 2022).

How the values were obtained:
human IDO1 = molecular target: T1, human IDO1 (Homo sapiens, UniProt P14902); assay: IDO inhibition assay in HEK293 cells stably expressing human IDO1 (kynurenine, Ehrlich reagent, absorbance 490 nm); assay type: cell-based; details: 20 hours incubation, read-out: IDO1 HEK Human IC50
T1 construct: expressed in transfected cells
T1 sequence (P14902 whole entry): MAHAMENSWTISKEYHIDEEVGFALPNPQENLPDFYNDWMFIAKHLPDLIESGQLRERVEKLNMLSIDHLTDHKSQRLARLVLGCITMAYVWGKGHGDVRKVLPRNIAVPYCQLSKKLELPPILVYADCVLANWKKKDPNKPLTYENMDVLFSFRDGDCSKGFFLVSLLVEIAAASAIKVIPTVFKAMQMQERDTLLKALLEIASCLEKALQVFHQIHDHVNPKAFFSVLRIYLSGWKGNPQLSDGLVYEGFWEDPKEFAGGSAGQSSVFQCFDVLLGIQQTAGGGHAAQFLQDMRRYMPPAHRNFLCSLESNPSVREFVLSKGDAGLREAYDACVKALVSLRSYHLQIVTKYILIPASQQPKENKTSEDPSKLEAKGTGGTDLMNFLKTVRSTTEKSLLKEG
Protocol: HEK293 cells were transfected with a pCDNA-based mammalian expression vector harboring human IDO1 cDNA (NM 002164.2) by electroporation. They were cultured in medium (DMEM with 10% FBS) containing 1 mg/ml G418 for two weeks. Clones of HEK293 cells that stably expressed human IDO1 protein were selected and expanded for IDO inhibition assay. The human IDO1/HEK293 cells were seeded at 10,000 cells per 50 μL per well with RPMI/phenol red free media contains 10% FBS in a 384-well black wall clear bottom tissue culture plate (Matrix Technologies LLC) 100 nL of certain concentration of compound was then added to each well using ECHO liquid handling systems. The cells were incubated for 20 hours in 37° C. incubator with 5% CO2. The compound treatments were stopped by adding trichloroacetic acid (Sigma-Aldrich) to a final concentration at 0.2%. The cell plate was further incubated at 50° C. for 30 minute. The equal volume supernatant ([…]) and 0.2% (w/v) Ehrlich reagent (4-dimethylaminobenzaldehyde, Sigma-Aldrich) in glacial acetic acid were mixed in a new clear bottom 384-well plate. This plate was then incubated at room temperature for 30 minute. The absorbance at 490 nm was measured on Envision plate reader. Compound IC50 values were calculated using the counts of 500 nM of a reference standard treatment as one hundred percent inhibition, and counts of no compound but DMSO treatment as zero percent inhibition.

[1] = molecular target: T2, indoleamine 2,3-dioxygenase (IDO) (Homo sapiens, UniProt P14902); assay: HeLa cell-based indoleamine 2,3-dioxygenase (IDO) assay (IFNγ-induced kynurenine production, absorbance 480 nm); details: HeLa cells, IFNγ 25 ng/mL, 48 hour incubation
T2 construct: host or cells: HeLa cells treated with IFNγ (25 ng/mL)
T2 sequence (P14902 whole entry): as above
Protocol: Assessment of inhibitor activity in HeLa cell-based indoleamine 2,3-dioxygenase (IDO) assay:
HeLa (ATCC® CCL-2) cells were obtained from the ATCC® and cultured in Dulbecco's Modified Eagle Medium supplemented with 4.5 g/L glucose, […] L-glutamine and […] (#10-013-CV, Corning), 2 mM L-alanyl-L-glutamine dipeptide (#35050-061, Gibco), 100U/mL penicillin, 100 μg/mL stroptomycin (#SV30010. HyClone) and 10% fetal bovine serum (#SH30071.03 HyClone). Cells were maintained in a humidified incubator at 37° C. in 5% CO2.
IDO activity was assessed as a function of kynurenine production as follows: HeLa cells were seeded in a 96-well culture plate at a density of 5,000 cells/well and allowed to equilibrate overnight. After 24 hours, the media was aspirated and replaced with media containing IFNγ (#285-IF/CF, R&D Systems) at a final concentration of 25 ng/mL. A serial dilution of each test compound was added to the cells in a total volume of 200 μL of culture medium. After a further 48 hour incubation, 170 μL of supernatant was transferred from each well to a fresh 96-well plate, 12.1 μL of 6.1N trichloroacetic acid (#T0699, Sigma-Aldrich) was added to each well and mixed, followed by incubation at 65° C. for 20 minutes to hydrolyze N-formylkynurenine, the product of indoleamine 2,3-dioxygenase, to kynurenine. The reaction mixture was then centrifuged for 10 mins at 500×g to sediment the precipitate. 100 μL of the supernatant was transferred from each well to a fresh 96-well plate. 100 μl of 2% (w/v) p-dimethylaminobenzaldehyde (#15647-7, Sigma-Aldrich) in acetic acid (#A6283, Sigma-Aldrich) was added to each well mixed and incubated at room temperature for 20 mins. Kynurenine concentrations were determined by measuring absorbance at 480 nm and calibrating against an L-kynurenine (#K8625, Sigma-Aldrich) standard curve using a SPECTRAMAX® M2e microplate reader (Molecular Devices). The percentage activity at each inhibitor concentration was determined and IC50 values assessed using nonlinear regression.

Row | SMILES | IC50 (human IDO1) | IC50 [1]
1 | CC(C)Oc1ccc(-c2nnc([C@H](C)[C@H]3CC[C@@H](c4ccnc5ccc(F)cc54)CC3)[nH]2)cc1 [Example 12, 6-fluoro-4-((1S,4s)-4-((R)-1-(5-(4-isopropoxyphenyl)-4H-1,2,4-triazol-3-yl)ethyl)cyclohexyl)quinoline] | 0.0225 µM | 0.039 µM
2 | CCC(Nc1nnc(-c2ccc(Cl)cc2)o1)[C@H]1CC[C@@H](c2ccnc3ccc(C(F)(F)F)cc32)CC1 (single isomer, unassigned) [Example 58-1, 5-(4-Chlorophenyl)-N-(1-((1s,4s)-4-(6-(trifluoromethyl)quinolin-4-yl)cyclohexyl)propyl)-1,3,4-oxadiazol-2-amine] |  | 0.326 µM
3 | C[C@@H](Nc1nnc(-c2ccc(C#N)cc2)[nH]1)[C@H]1CC[C@@H](c2ccnc3ccc(F)cc32)CC1 [Example 41, 4-(5-((R)-1-((1s,4S)-4-(6-Fluoroquinolin-4-yl)cyclohexyl)ethylamino)-4H-1,2,4-triazol-3-yl)benzonitrile] | 0.0231 µM | 0.39 µM
4 | CCC(Nc1nnc(-c2ccc(OC)cc2)o1)C1CCC(Oc2ccnc3ccccc23)CC1 (single isomer, unassigned) [Example 64-1] |  | 0.916 µM
5 | C[C@@H](c1nnc(-c2ccc(Cl)cc2)s1)[C@H]1CC[C@@H](c2ccnc3ccc(F)cc32)CC1 [Example 5, 2-(4-Chlorophenyl)-5-((R)-1-((1s,4S)-4-(6-fluoroquinolin-4-yl)cyclohexyl)ethyl)-1,3,4-thiadiazole] | 0.0151 µM | 0.035 µM
6 | C[C@@H](c1nnc(-c2ccc(F)cc2)o1)[C@H]1CC[C@@H](c2ccnc3ccc(F)cc32)CC1 [Example 2, 2-(4-Fluorophenyl)-5-((R)-1-((1s,4s)-4-(6-fluoroquinolin-4-yl)cyclohexyl)ethyl)-1,3,4-oxadiazole] | 0.0392 µM | 0.0348 µM
7 | CCC(Nc1nnc(-c2ccc(OC)cc2)o1)C1CCC(c2ccnc3ccc(C(F)(F)F)cc23)CC1 (single isomer, unassigned) [Example 60, 5-(4-methoxyphenyl)-N-(1-((1s,4s)-4-(6-(trifluoromethyl)quinolin-4-yl)cyclohexyl)propyl)-1,3,4-oxadiazol-2-amine] |  | 0.0548 µM
8 | C[C@@H](Nc1nnc(C2CC2)o1)[C@H]1CC[C@@H](c2ccnc3ccc(F)cc32)CC1 [Example 28, 5-cyclopropyl-N-((R)-1-((1s,4S)-4-(6-fluoroquinolin-4-yl)cyclohexyl)ethyl)-1,3,4-oxadiazol-2-amine] | 0.0371 µM | 
9 | C[C@@H](c1nnc(-c2ccc(F)c(Cl)c2)o1)[C@H]1CC[C@@H](c2ccnc3ccc(F)cc32)CC1 [Example 17, 2-(3-chloro-4-fluorophenyl)-((R)-1-((1s,4S)-4-(6-fluoroquinolin-4-yl)cyclohexyl)ethyl)-1,3,4-oxadiazole] | 0.239 µM | 
10 | C[C@@H](Nc1nnc(-c2ccc(Cl)cc2)o1)[C@H]1CC[C@@H](c2ccnc3ccc(F)cc32)CC1 [Example 23, 5-(4-Chlorophenyl)-N—((R)-1-((1s,4S)-4-(6-fluoroquinolin-4-yl)cyclohexyl)ethyl)-1,3,4-oxadiazol-2-amine] | 0.0453 µM | 
11 | C[C@@H](Nc1ncc(-c2ccc(Cl)cc2)s1)[C@H]1CC[C@@H](c2ccnc3ccc(F)cc32)CC1 [Example 39, 5-(4-Chlorophenyl)-N—((R)-1-((1s,4S)-4-(6-fluoroquinolin-4-yl)cyclohexyl)ethyl)thiazol-2-amine] |  | 0.288 µM
12 | C[C@@H](Nc1nc(-c2ccc(Cl)cc2)cs1)[C@H]1CC[C@@H](c2ccnc3ccc(F)cc32)CC1 [Example 37, 4-(4-Chlorophenyl)-N—((R)-1-((1s,4S)-4-(6-fluoroquinolin-4-yl)cyclohexyl)ethyl)thiazol-2-amine] | 0.858 µM | 

Continued by falling IC50 [1], values first:

Row | IC50 (human IDO1) | IC50 [1] | SMILES
13 |  | 0.0262 µM | CCC(Nc1nnc(-c2ccc(OC)cc2)o1)[C@H]1CC[C@@H](c2ccnc(F)c2C)CC1 (single isomer, unassigned) [Example 63-1, N-(1-((1s,4s)-4-(2-Fluoro-3-methylpyridin-4-yl)cyclohexyl)propyl)-5-(4-methoxyphenyl)-1,3,4-oxadiazol-2-amine]
14 |  | 0.0211 µM | C[C@@H](Nc1ncc(-c2ccc(Cl)cc2)o1)[C@H]1CC[C@@H](c2ccnc3ccc(F)cc32)CC1 [Example 38, 5-(4-Chlorophenyl)-N—((R)-1-((1s,4S)-4-(6-fluoroquinolin-4-yl)cyclohexyl)ethyl)oxazol-2-amine]
15 |  | 0.0202 µM | CCC(Nc1nnc(-c2ccc(OC)cc2)o1)[C@H]1CC[C@@H](c2ccnc3c(C(F)(F)F)cccc32)CC1 (stereo partly shown) [Example 68, 5-(4-Methoxyphenyl)-N-(1-((1s,4s)-4-(8-(trifluoromethyl)quinolin-4-yl)cyclohexyl)propyl)-1,3,4-oxadiazol-2-amine]
16 | 0.0423 µM | 0.0167 µM | C[C@@H](c1nnc(-c2ccc(F)cc2)[nH]1)[C@H]1CC[C@@H](c2ccnc3ccc(F)cc32)CC1 [Example 3, 6-Fluoro-4-((1s,4s)-4-((R)-1-(5-(4-fluorophenyl)-4H-1,2,4-triazol-3-yl)ethyl)cyclohexyl)quinoline]
17 |  | 0.0156 µM | COCC(Nc1nnc(-c2ccc(OC)cc2)o1)[C@H]1CC[C@@H](c2ccnc3ccc(F)cc32)CC1 (single isomer, unassigned) [Example 65-1, N-(1-((1s,4s)-4-(6-Fluoroquinolin-4-yl)cyclohexyl)-2-methoxyethyl)-5-(4-methoxyphenyl)-1,3,4-oxadiazol-2-amine]
18 | 0.0124 µM | 0.0105 µM | C[C@@H](c1ncc(-c2ccc(Cl)cc2)[nH]1)[C@H]1CC[C@@H](c2ccnc3ccc(F)cc32)CC1 [Example 44, 4-((1s,4s)-4-((R)-1-(5-(4-Chlorophenyl)-1H-imidazol-2-yl)ethyl)cyclohexyl)-6-fluoroquinoline]
19 |  | 0.0089 µM | CCC(Nc1nnc(-c2ccc(OC)cc2)o1)C1CCC(Oc2ccnc3ccccc23)CC1 (single isomer, unassigned) [Example 64-2]
20 | 0.0059 µM | 0.0088 µM | C[C@@H](c1nnc(Nc2ccccc2)[nH]1)[C@H]1CC[C@@H](c2ccnc3ccc(F)cc32)CC1 [Example 22, 5-((R)-1-((1s,4s)-4-(6-Fluoroquinolin-4-yl)cyclohexyl)ethyl)-N-phenyl-4H-1,2,4-triazol-3-amine]
21 |  | 0.0074 µM | CCC(Nc1nnc(-c2ccc(Cl)cc2)o1)[C@H]1CC[C@@H](c2ccnc3ccc(C(F)(F)F)cc32)CC1 (single isomer, unassigned) [Example 58-2, 5-(4-Chlorophenyl)-N-(1-((1s,4s)-4-(6-(trifluoromethyl)quinolin-4-yl)cyclohexyl)propyl)-1,3,4-oxadiazol-2-amine]
22 | 0.0138 µM | 0.0055 µM | C[C@@H](c1nnc(-c2ccccc2)o1)[C@H]1CC[C@@H](c2ccnc3ccc(F)cc32)CC1 [Example 19, 2-((R)-1-((1s,4S)-4-(6-fluoroquinolin-4-yl)cyclohexyl)ethyl)-5-phenyl-1,3,4-oxadiazole]
23 | 0.006 µM | 0.0047 µM | CCC(Nc1nnc(-c2ccc(OC)cc2)o1)C1CCC(c2ccnc3ccc(C(F)(F)F)cc23)CC1 (single isomer, unassigned) [Example 59, 5-(4-methoxyphenyl)-N-(1-((1s,4s)-4-(6-(trifluoromethyl)quinolin-4-yl)cyclohexyl)propyl)-1,3,4-oxadiazol-2-amine]
24 | 0.0017 µM | 0.0035 µM | CCC(Nc1nnc(-c2ccc(F)cc2)o1)C1CCC(c2ccnc3ccc(C(F)(F)F)cc23)CC1 (single isomer, unassigned) [Example 62, 5-(4-fluorophenyl)-N-(1-((1s,4s)-4-(6-(trifluoromethyl)quinolin-4-yl)cyclohexyl)propyl)-1,3,4-oxadiazol-2-amine]
